According to patent US10030047B2 (Hoffmann-La Roche Inc., priority 2015, dated 2018):
≈ marks a conversion by molar mass, not a printed value.

The compounds below were run on A. baumannii strain ATCC19606 (assay: Minimum inhibitory concentration (MIC) determination, microbroth dilution (CLSI)). Details: Acinetobacter baumannii; A. baumannii ATCC19606; CAMHB; read after 20 hours; >=80% growth inhibition; read-out: ATCC19606 MIC.
Assay type: cell-based
Outline: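 CLSI broth microdilution in cation-adjusted Mueller Hinton broth with twofold compound dilutions and ~5×10^5 CFU/ml inoculum, incubated at 35±2 °C. MIC read after 20 h as lowest concentration inhibiting ≥80% of growth, by eye and OD 600 nm.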
With `CN1C(=O)[C@H](CCCCN)NC(=O)[C@H](CCCN)NCc2cccnc2Sc2c(Cl)ccc(Br)c2CNC(=O)[C@@H]1Cc1c[nH]c2ccccc12` [Example 90, (11S,14S,17S)-14-(4-Amino-butyl)-11-(3-amino-propyl)-22-bromo-25-chloro-17-(1H-indol-3-ylmethyl)-16-methyl-2-thia-4,10,13,16,19-pentaaza-tricyclo[19.4.0.0*3,8*]pentacosa-1(25),3,5,7,21,23-hexaene-12,15,18-trione] the MIC was 0.25 mg/L (≈ 0.319 µM). With `CN1C(=O)[C@H](CCCCN)NC(=O)[C@H](CCCN)NCc2cccnc2Sc2c(cc(C(F)(F)F)cc2C(F)(F)F)CNC(=O)[C@@H]1Cc1c[nH]c2ccccc12` [Example 91, (11S,14S,17S)-14-(4-Amino-butyl)-11-(3-amino-propyl)-17-(1H-indol-3-ylmethyl)-16-methyl-23,25-bis-trifluoromethyl-2-thia-4,10,13,16,19-pentaaza-tricyclo[19.4.0.0*3,8*]pentacosa-1(25),3,5,7,21,23-hexaene-12,15,18-trione] the MIC was 0.5 mg/L (≈ 0.62 µM). Work on `CN1C(=O)[C@H](CCCCN)NC(=O)[C@H](CCCN)NCc2cccnc2Sc2c(Cl)cc(N3CCOCC3)cc2CNC(=O)[C@@H]1Cc1c[nH]c2ccccc12` [Example 92, (11S,14S,17S)-14-(4-Amino-butyl)-11-(3-amino-propyl)-25-chloro-17-(1H-indol-3-ylmethyl)-16-methyl-23-morpholin-4-yl-2-thia-4,10,13,16,19-pentaaza-tricyclo[19.4.0.0*3,8*]pentacosa-1(25),3,5,7,21,23-hexaene-12,15,18-trione] yielded an MIC of 0.5 mg/L (≈ 0.633 µM). Compound `CN1C(=O)[C@H](CCCCN)NC(=O)CNCc2cccnc2Sc2c(Cl)cc(Cl)cc2CNC(=O)[C@@H]1Cc1c[nH]c2ccccc12` [Example 93, (14S,17S)-14-(4-Amino-butyl)-23,25-dichloro-17-(1H-indol-3-ylmethyl)-16-methyl-2-thia-4,10,13,16,19-pentaaza-tricyclo[19.4.0.0*3,8*]pentacosa-1(25),3,5,7,21,23-hexaene-12,15,18-trione] has an MIC of 16 mg/L (≈ 23.4 µM). With `C[C@@H]1NCc2cccnc2Sc2c(Cl)cc(Cl)cc2CNC(=O)[C@H](Cc2c[nH]c3ccccc23)N(C)C(=O)[C@H](CCCCN)NC1=O` [Example 94, (11S,14S,17S)-14-(4-Amino-butyl)-23,25-dichloro-17-(1H-indol-3-ylmethyl)-11,16-dimethyl-2-thia-4,10,13,16,19-pentaaza-tricyclo[19.4.0.0*3,8*]pentacosa-1(25),3,5,7,21,23-hexaene-12,15,18-trione] the MIC was 1 mg/L (≈ 1.44 µM). `CC(C)[C@@H]1NCc2cccnc2Sc2c(Cl)cc(Cl)cc2CNC(=O)[C@H](Cc2c[nH]c3ccccc23)N(C)C(=O)[C@H](CCCCN)NC1=O` [Example 95, (11S,14S,17S)-14-(4-Amino-butyl)-23,25-dichloro-17-(1H-indol-3-ylmethyl)-11-isopropyl-16-methyl-2-thia-4,10,13,16,19-pentaaza-tricyclo[19.4.0.0*3,8*]pentacosa-1(25),3,5,7,21,23-hexaene-12,15,18-trione] showed an MIC of 8 mg/L (≈ 11 µM). `CN1C(=O)[C@H](CCCCN)NC(=O)[C@H](CO)NCc2cccnc2Sc2c(Cl)cc(Cl)cc2CNC(=O)[C@@H]1Cc1c[nH]c2ccccc12` [Example 96, (11S,14S,17S)-14-(4-Amino-butyl)-23,25-dichloro-11-hydroxymethyl-17-(1H-indol-3-ylmethyl)-16-methyl-2-thia-4,10,13,16,19-pentaaza-tricyclo[19.4.0.0*3,8*]pentacosa-1(25),3,5,7,21,23-hexaene-12,15,18-trione] gave an MIC of 4 mg/L (≈ 5.61 µM). For `CN1C(=O)[C@H](CCCCN)NC(=O)[C@H](CCCN)NCc2nccnc2Sc2c(Cl)cc(C(F)(F)F)cc2CNC(=O)[C@@H]1Cc1c[nH]c2ccccc12` [Example 97, (11S,14S,17S)-14-(4-Amino-butyl)-11-(3-amino-propyl)-25-chloro-17-(1H-indol-3-ylmethyl)-16-methyl-23-trifluoromethyl-2-thia-4,7,10,13,16,19-hexaaza-tricyclo[19.4.0.0*3,8*]pentacosa-1(21),3,5,7,22,24-hexaene-12,15,18-trione], the MIC was 0.12 mg/L (≈ 0.155 µM). `CN1C(=O)[C@H](CCCCN)NC(=O)[C@H](CCCN)NCc2nccnc2Sc2c(Cl)ccc(C(F)(F)F)c2CNC(=O)[C@@H]1Cc1c[nH]c2ccccc12` [Example 98, (11S,14S,17S)-14-(4-Amino-butyl)-11-(3-amino-propyl)-25-chloro-17-(1H-indol-3-ylmethyl)-16-methyl-22-trifluoromethyl-2-thia-4,7,10,13,16,19-hexaaza-tricyclo[19.4.0.0*3,8*]pentacosa-1(21),3,5,7,22,24-hexaene-12,15,18-trione] gave an MIC of 0.12 mg/L (≈ 0.155 µM). Compound `CN1C(=O)[C@H](CCCCN)NC(=O)[C@H](CCCN)NCc2cccnc2Sc2c(Cl)cc(-c3cccnc3)cc2CNC(=O)[C@@H]1Cc1c[nH]c2ccccc12` [Example 99, (11S,14S,17S)-14-(4-Amino-butyl)-11-(3-amino-propyl)-25-chloro-17-(1H-indol-3-ylmethyl)-16-methyl-23-pyridin-3-yl-2-thia-4,10,13,16,19-pentaaza-tricyclo[19.4.0.0*3,8*]pentacosa-1(25),3,5,7,21,23-hexaene-12,15,18-trione] has an MIC of 4 mg/L (≈ 5.11 µM). In the case of `CN1C(=O)[C@H](CCCCN)NC(=O)[C@H](CCCN)NCc2cccnc2Sc2c(Cl)cc(-c3ccncc3)cc2CNC(=O)[C@@H]1Cc1c[nH]c2ccccc12` [Example 100, (11S,14S,17S)-14-(4-Amino-butyl)-11-(3-amino-propyl)-25-chloro-17-(1H-indol-3-ylmethyl)-16-methyl-23-pyridin-4-yl-2-thia-4,10,13,16,19-pentaaza-tricyclo[19.4.0.0*3,8*]pentacosa-1(25),3,5,7,21,23-hexaene-12,15,18-trione], the MIC is reported as 2 mg/L (≈ 2.56 µM). `CC(C)C[C@@H]1NCc2cccnc2Sc2c(Cl)cc(Cl)cc2CNC(=O)[C@H](Cc2c[nH]c3ccccc23)N(C)C(=O)[C@H](CCCCN)NC1=O` [Example 101, (11S,14S,17S)-14-(4-Amino-butyl)-23,25-dichloro-17-(1H-indol-3-ylmethyl)-11-isobutyl-16-methyl-2-thia-4,10,13,16,19-pentaaza-tricyclo[19.4.0.0*3,8*]pentacosa-1(25),3,5,7,21,23-hexaene-12,15,18-trione] showed an MIC of 32 mg/L (≈ 43.3 µM). With `COc1cc(-c2cc(Cl)c3c(c2)CNC(=O)[C@H](Cc2c[nH]c4ccccc24)N(C)C(=O)[C@H](CCCCN)NC(=O)[C@H](CCCN)NCc2cccnc2S3)ccn1` [Example 102, (11S,14S,17S)-14-(4-Amino-butyl)-11-(3-amino-propyl)-25-chloro-17-(1H-indol-3-ylmethyl)-23-(2-methoxy-pyridin-4-yl)-16-methyl-2-thia-4,10,13,16,19-pentaaza-tricyclo[19.4.0.0*3,8*]pentacosa-1(25),3,5,7,21,23-hexaene-12,15,18-trione] the MIC was 0.5 mg/L (≈ 0.615 µM). `CN1C(=O)[C@H](CCCCN)NC(=O)[C@H](CCC(N)=O)NCc2cccnc2Sc2c(Cl)cc(Cl)cc2CNC(=O)[C@@H]1Cc1c[nH]c2ccccc12` [Example 103, 3-[(11S,14S,17S)-14-(4-Amino-butyl)-23,25-dichloro-17-(1H-indol-3-ylmethyl)-16-methyl-12,15,18-trioxo-2-thia-4,10,13,16,19-pentaaza-tricyclo[19.4.0.0*3,8*]pentacosa-1(25),3,5,7,21,23-hexaen-11-yl]-propionamide] showed an MIC of 0.25 mg/L (≈ 0.332 µM). Work on `CN1C(=O)[C@H](CCCCN)NC(=O)[C@H](CCCN)NCc2ncccc2Sc2c(Cl)ccc(Cl)c2CNC(=O)[C@@H]1Cc1c[nH]c2ccccc12` [Example 104, (11S,14S,17S)-14-(4-Amino-butyl)-11-(3-amino-propyl)-22,25-dichloro-17-(1H-indol-3-ylmethyl)-16-methyl-2-thia-7,10,13,16,19-pentaaza-tricyclo[19.4.0.0*3,8*]pentacosa-1(21),3,5,7,22,24-hexaene-12,15,18-trione] yielded an MIC of 2 mg/L (≈ 2.7 µM). `Cc1cc(-c2cc(Cl)c3c(c2)CNC(=O)[C@H](Cc2c[nH]c4ccccc24)N(C)C(=O)[C@H](CCCCN)NC(=O)[C@H](CCCN)NCc2cccnc2S3)ccn1` [Example 105, (11S,14S,17S)-14-(4-Amino-butyl)-11-(3-amino-propyl)-25-chloro-17-(1H-indol-3-ylmethyl)-16-methyl-23-(2-methyl-pyridin-4-yl)-2-thia-4,10,13,16,19-pentaaza-tricyclo[19.4.0.0*3,8*]pentacosa-1(25),3,5,7,21,23-hexaene-12,15,18-trione] was tested, and the MIC was 1 mg/L (≈ 1.26 µM). For `C[C@H](O)[C@@H]1NCc2cccnc2Sc2c(Cl)cc(Cl)cc2CNC(=O)[C@H](Cc2c[nH]c3ccccc23)N(C)C(=O)[C@H](CCCCN)NC1=O` [Example 106, (11S,14S,17S)-14-(4-Amino-butyl)-23,25-dichloro-11-((S)-1-hydroxy-ethyl)-17-(1H-indol-3-ylmethyl)-16-methyl-2-thia-4,10,13,16,19-pentaaza-tricyclo[19.4.0.0*3,8*]pentacosa-1(25),3,5,7,21,23-hexaene-12,15,18-trione], the MIC was 2 mg/L (≈ 2.75 µM). `CN1C(=O)[C@H](CCCCN)NC(=O)C(C)(C)NCc2cccnc2Sc2c(Cl)cc(Cl)cc2CNC(=O)[C@@H]1Cc1c[nH]c2ccccc12` [Example 107, (14S,17S)-14-(4-Amino-butyl)-23,25-dichloro-17-(1H-indol-3-ylmethyl)-11,11,16-trimethyl-2-thia-4,10,13,16,19-pentaaza-tricyclo[19.4.0.0*3,8*]pentacosa-1(25),3,5,7,21,23-hexaene-12,15,18-trione] gave an MIC of 8 mg/L (≈ 11.3 µM). `CN1C(=O)[C@H](CCCCN)NC(=O)[C@H](Cc2ccc3ccccc3c2)NCc2cccnc2Sc2c(Cl)cc(Cl)cc2CNC(=O)[C@@H]1Cc1c[nH]c2ccccc12` [Example 108, (11S,14S,17S)-14-(4-Amino-butyl)-23,25-dichloro-17-(1H-indol-3-ylmethyl)-16-methyl-11-naphthalen-2-ylmethyl-2-thia-4,10,13,16,19-pentaaza-tricyclo[19.4.0.0*3,8*]pentacosa-1(25),3,5,7,21,23-hexaene-12,15,18-trione] showed an MIC of 16 mg/L (≈ 19.4 µM).
